Experimental data as given in PMC6272715, “Discovery of Novel Small Molecule Anti-HCV Agents via the CypA Inhibitory Mechanism Using O-Acylation-Directed Lead Optimization” (Molecules, 2015).
Several values for one entry are separate records, joined by “and”; a condition that tells them apart may be missing. Equal entries are not always repeated. Where two headings read alike, the source gives them in different places.

Assays:
in vivo = conditions: male, SD, rat, iv, i.v. 2 mg 25/kg; for AUC(0-inf): AUC0-∞
CypA = CypA (Homo sapiens, UniProt P62937); test: CypA enzyme inhibition assay (chymotrypsin-coupled PPIase assay); format: biochemical; conditions: mean ± SD of five independent experiments
Experimental: The PPIase activity of CypA was conducted in a coupled assay with chymotrypsin using the synthetic tetrapeptide N-succinyl-Ala-Ala-Pro-Phe-p-nitroanilide (Sigma, Shanghai, China) as described in [34] with small modifications. The assay buffer (20 mM Tris-HCl, 50 mM NaCl, pH 7.8) and CypA were precooled at 4 °C and mixed with 0.4 mg∙mL^−1 chymotrypsin (20 mg∙mL^−1 in 1 mM HCl). The reaction was initiated by adding peptide substrate (2 mg∙mL^−1 in 500 mM LiCl in tetrahydrofuran (THF)). […] Absorbance readings were collected every 0.1 s and the temperature was controlled at 4 °C during the assay. The progress curves were analyzed by nonlinear least-squares fit. The inhibition assays of compounds were performed in the same manner as above-mentioned. […] of test compounds in DMSO, at various concentrations, was added to the CypA solution in the assay buffer. After being preincubated for 1 h at 4 °C, the assay was started by the addition of chymotrypsin and the substrate. To calculate the half-maximal inhibitory concentration (IC50), a percent of the remaining PPIase activity was plotted against the common logarithm of the compound concentration, and the data were fitted using the sigmoidal fitting model of Origin 7.0 software.

HCV H77-1a replicon = test: HCV H77-1a subgenomic replicon assay; format: cell-based; conditions: Hepatitis C virus; Table 4; read-out: Anti-HCV Activity EC50 ± SD Replicon Assay H77-1a
[1] = rats, intravenous injection of 25 (2 mg∙kg^−1)
HCV JFH1-2a replicon = test: HCV JFH1-2a subgenomic replicon assay (Renilla luciferase, Huh 7.5.1 replicon cells); format: cell-based; conditions: Hepatitis C virus, Table 4, read-out: Anti-HCV Activity EC50 ± SD Replicon Assay JFH1-2a
[2] = PBS pH 7.4, 37 °C
JFH1-2a (S282T) virus = test: HCV virus assay, mutant JFH1-2a (S282T) virus strain; format: cell-based; conditions: Hepatitis C virus, read-out: Anti-HCV Activity (Virus Assay) EC50 ± SD JFH1-2a (S282T)
[3] = Cell proliferation (cytotoxicity) assay, WST-1; format: cell-based; conditions: human, Huh 7.5.1 cells
Experimental: Cell Proliferation Assay: Huh 7.5.1 cells were seeded at a density of 2 × 10^4 cells per well in 96-well plates overnight. The cells were respectively incubated with serial diluted compounds for 48 h, and the viability of Huh7.5.1 cells was determined in 96-well tissue culture plates using cell proliferation reagent WST-1 (Roche, Basel, Switzerland). The absorbance (OD450 /reference OD630) was measured to detect the cytotoxicity of compounds, according to the manufacturer’s protocol of Cell Proliferation Reagent WST-1.

[4] = test system: JFH1-2a virus (wild type); test: HCV virus assay, JFH1-2a wild type, Huh 7.5.1 cells; conditions: Hepatitis C virus
HCV Con1-1b replicon = test: HCV Con1-1b subgenomic replicon assay; format: cell-based; conditions: Hepatitis C virus; Table 4; read-out: Anti-HCV Activity EC50 ± SD Replicon Assay Con1-1b
[5] = SD rats, Mean ± SD (Rat 1 and 3)

Chain of CypA (P62937 whole entry): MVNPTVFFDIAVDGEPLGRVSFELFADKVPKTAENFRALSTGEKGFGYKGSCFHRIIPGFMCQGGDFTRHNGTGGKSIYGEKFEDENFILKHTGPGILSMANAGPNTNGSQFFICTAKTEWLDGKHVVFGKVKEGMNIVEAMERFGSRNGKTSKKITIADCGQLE

SMILES: CCCCCCCC(=O)Oc1cccc(O)c1C(=O)NC(=O)NC1c2ccccc2-c2ccccc21 [Compound 25, 1-(2-Hydroxy-6-n-Octanoyloxybenzoyl)-3-(9H-fluoren-9-yl)-urea]
- melting point: 184 to 189 °C
- AUC(0-inf) (in vivo; SD rat, Rat 1): 5.66 ng·h/mL
- AUC(0-inf) (in vivo; SD rat, Rat 3): 5.3 ng·h/mL
- AUC(0-inf) (in vivo; [5]): 5.48 ± 0.25 ng·h/mL
- Cmax (in vivo; SD rat, Rat 1): 13.4 ng/mL
- Cmax (in vivo; SD rat, Rat 3): 27.5 ng/mL
- Cmax (in vivo; [5]): 20.5 ± 9.99 ng/mL
- MRT (in vivo; SD rat, Rat 1): 2.42 h
- MRT (in vivo; SD rat, Rat 3): 0.21 h
- MRT (in vivo; [5]): 1.3 ± 1.6 h
- half-life (in vivo; t1/2, SD rat, Rat 1): 5.4 h
- half-life (in vivo; t1/2, SD rat, Rat 3): 0.12 h
- half-life (in vivo; t1/2, SD rats, Mean ± SD (Rat 1 and 3)): 2.76 ± 3.73 h
- IC50 (CypA): > 5000 nM
- EC50 (HCV H77-1a replicon): 850 ± 210 nM
- plasma concentration after 5 min (mean ± SD) [1]: 20.47 ± 9.99 ng/mL
- EC50 (HCV JFH1-2a replicon): 450 ± 80 nM
- 25 Content ([2]; 0 h): 100%
- 25 Content ([2]; 0.5 h): 99.79%
- 25 Content ([2]; 1.0 h): 100.13%
- 25 Content ([2]; 1.5 h): 99.76%
- 25 Content ([2]; 2.0 h): 100.72%
- 25 Content ([2]; 3.0 h): 100.67%
- 25 Content ([2]; 3.5 h): 100.93%
- 25 Content ([2]; 4.0 h): 100.74%
- 25 Content ([2]; 5.0 h): 100.21%
- 25 Content ([2]; 6.0 h): 100.24%
- 25 Content ([2]; 7.0 h): 100.34%
- 25 Content ([2]; 8.0 h): 100.30%
- 25 Content ([2]; 9.0 h): 99.29%
- 25 Content ([2]; 10.0 h): 98.88%
- 25 Content ([2]; 11.0 h): 98.43%
- 25 Content ([2]; 12.0 h): 98.65% and 98.6%
- EC50 (JFH1-2a (S282T) virus): 290 ± 70 nM
- CC50 at 48 h ([3]; Table 4, 48 h): > 16000 nM
- CC50 at 48 h ([3]; Table 5): > 20000 nM
- EC50 ([4]; Huh-7.5.1, read-out: Anti-HCV Activity (Virus Assay) EC50 ± SD JFH1-2a (Wild Type)): 270 ± 90 nM
- EC50 ([4]; Huh-7.5.1, read-out: Anti-HCV Activity EC50 ± SD Virus Assay JFH1-2a): 190 ± 80 nM
- EC50 (HCV Con1-1b replicon): 810 ± 240 nM
